One assay deals with Prothrombin (Homo sapiens, UniProt P00734). The assay can be described thus: Compound was evaluated for its binding affinity to the thrombin.
A further assay deals with Serine protease 1 (Homo sapiens, UniProt P07477). The assay is described as follows: Compound was evaluated for its binding affinity to the trypsin enzyme.
The next assay has as its target Kallikrein-1 (Homo sapiens, UniProt P06870). The assay is described as follows: Compound was evaluated for its inhibitory activity against Kallikrein.
The next assay addresses Tryptase (Homo sapiens, UniProt Q9BZJ3+Q15661+Q9NRR2). The assay can be described thus: Compound was evaluated for its binding affinity to the tryptase. The class given is protein assay.

Sequence of Kallikrein-1 (P06870 whole entry): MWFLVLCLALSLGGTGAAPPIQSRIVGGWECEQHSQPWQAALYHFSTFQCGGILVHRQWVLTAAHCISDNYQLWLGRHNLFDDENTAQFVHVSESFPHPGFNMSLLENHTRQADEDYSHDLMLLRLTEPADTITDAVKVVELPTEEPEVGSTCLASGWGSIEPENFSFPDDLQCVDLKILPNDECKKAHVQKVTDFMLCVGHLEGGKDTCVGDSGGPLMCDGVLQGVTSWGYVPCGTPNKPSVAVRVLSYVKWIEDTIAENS
Sequence of Serine protease 1 (P07477 whole entry): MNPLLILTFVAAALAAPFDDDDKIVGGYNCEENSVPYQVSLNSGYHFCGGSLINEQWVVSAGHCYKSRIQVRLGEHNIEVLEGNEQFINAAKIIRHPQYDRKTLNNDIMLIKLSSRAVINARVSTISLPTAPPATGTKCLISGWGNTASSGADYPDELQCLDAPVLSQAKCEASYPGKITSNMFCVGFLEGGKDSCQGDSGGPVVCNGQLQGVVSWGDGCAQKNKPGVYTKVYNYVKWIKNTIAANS

On Prothrombin, `C=CCC1(CC=C)C(=O)N2CC(C)=CC(C(=O)NC(CCCCN)C(=O)C(=O)NCCc3ccc(C(N)=O)cc3)N2C1=O` (stereo not drawn) came in with an inhibition constant (Ki) of 18 nM.

As for `CCCCC1(CCCC)C(=O)N2CC(C)=CC(C(=O)NC(CCCCN)C(=O)C(=O)NCCc3ccc(C(N)=O)cc3)N2C1=O` (stereo not drawn), the Ki on Prothrombin came to 0.2 nM.

At Prothrombin, `CCC1(N)C(=O)N2C(Cc3ccccc3)C=CC(C(=O)NC(CCCCN)C(=O)C(N)=O)N2C1=O` (stereo not drawn) gave an inhibition constant (Ki) of 4.33 nM.

Turning to `COc1ccc(-n2c(=O)n3n(c2=O)C(C(=O)NC(CCCCN)C(=O)C(=O)NCCc2ccc(C(N)=O)cc2)C=CC3CC(C)C)cc1` (stereo not drawn), the affinity at Serine protease 1, expressed as Ki, was 0.28 nM.

`CC1=CC(C(=O)NC(CCCCN)C(=O)C(=O)NCc2ccc(C(N)=O)cc2)N2C(=O)C(N)(Cc3ccccc3)C(=O)N2C1` (stereo not drawn): the inhibition constant Ki on Prothrombin was 1.58 nM.

As to `CC(C)CCn1c(=O)n2n(c1=O)C(C(=O)NC(CCCCN)C(=O)C(=O)NCCc1ccc(C(N)=O)cc1)C=CC2CC(C)C` (stereo not drawn), the affinity on Serine protease 1, expressed as Ki, was 0.43 nM.

For `NCCCCC(NC(=O)C1C=CCn2c(=O)n(CC(c3ccccc3)c3ccccc3)c(=O)n21)C(=O)C(=O)NCCc1ccc(C(N)=O)cc1` (stereo not drawn), at Prothrombin, the affinity, expressed as Ki, was 0.3 nM.

On to `CC1(C)C2CC3C(=CC(C(=O)NC(CCCCN)C(=O)C(=O)NCCc4ccc(C(N)=O)cc4)n4c(=O)n(Cc5ccc(Cl)c(Cl)c5)c(=O)n43)C1C2` (stereo not drawn), for which the Ki at Kallikrein-1 came to 31 nM.

As to `CC1=CC(C(=O)NC(CCCCN)C(=O)C(=O)NCCc2ccc(C(N)=O)cc2)n2c(=O)n(C(c3ccccc3)c3ccccc3)c(=O)n2C1` (stereo not drawn), the inhibition constant Ki at Tryptase was determined as 5.9 nM.

With `CC1=CC(C(=O)NC(CCCCN)C(=O)C(=O)NCCc2ccc(C(N)=O)cc2)N2C(=O)C(Cc3ccccc3)(Cc3ccccc3)C(=O)N2C1` (stereo not drawn), the Ki at Prothrombin amounted to 1.89 nM.

In the case of `CC1=CC(C(=O)NC(CCCCN)C(=O)C(=O)NCCc2ccc(C(N)=O)cc2)N2C(=O)C(CC(C)C)(CC(C)C)C(=O)N2C1` (stereo not drawn), the Ki at Prothrombin worked out at 5.09 nM.

As for `COC(=O)C1C(CCc2ccccc2)=CC(C(=O)NC(CCCCN)C(=O)C(=O)NCCc2ccc(C(N)=O)cc2)n2c(=O)n(Cc3cc(F)ccc3F)c(=O)n21` (stereo not drawn), the Ki on Kallikrein-1 was found to be 21 nM.

In turn, `CC1=CC(C(=O)NC(CCCCN)C(=O)C(=O)NCCc2ccc(C(N)=O)cc2)n2c(=O)n(CC(c3ccccc3)c3ccccc3)c(=O)n2C1` (stereo not drawn) yielded a Ki at Prothrombin of 0.035 nM.

Source of the values: ChEMBL document CHEMBL1130946, “Highly efficient and versatile synthesis of libraries of constrained beta-strand mimetics” (Bioorg Med Chem Lett, 1998).
